Data from patent US5942405A, “Therapeutic and screening methods using C3a receptor and C3a” (priority 1997, dated 1999).

Experiments:
[1] = target: T1, C3a Receptor (Homo sapiens, UniProt Q16581); assay: Electrophysiological response (Ca2+ mediated chloride currents, two electrode voltage clamp) of Xenopus oocytes injected with C3a Receptor cRNA; type: cell-based; parameters: cDNA encoding a complete orphan GPCR of 482 amino acids; expressed in transfected cells; host or cells: Xenopus laevis oocytes microinjected with cRNA, with or without U937 total RNA; conditions: for electrophysiological response of oocytes expressing C3a Receptor: oocytes co-injected with C3a Receptor cRNA (10 ng) and U937 RNA (25 ng), ligands 10 nM
T1 sequence (Q16581 1-482 F151C): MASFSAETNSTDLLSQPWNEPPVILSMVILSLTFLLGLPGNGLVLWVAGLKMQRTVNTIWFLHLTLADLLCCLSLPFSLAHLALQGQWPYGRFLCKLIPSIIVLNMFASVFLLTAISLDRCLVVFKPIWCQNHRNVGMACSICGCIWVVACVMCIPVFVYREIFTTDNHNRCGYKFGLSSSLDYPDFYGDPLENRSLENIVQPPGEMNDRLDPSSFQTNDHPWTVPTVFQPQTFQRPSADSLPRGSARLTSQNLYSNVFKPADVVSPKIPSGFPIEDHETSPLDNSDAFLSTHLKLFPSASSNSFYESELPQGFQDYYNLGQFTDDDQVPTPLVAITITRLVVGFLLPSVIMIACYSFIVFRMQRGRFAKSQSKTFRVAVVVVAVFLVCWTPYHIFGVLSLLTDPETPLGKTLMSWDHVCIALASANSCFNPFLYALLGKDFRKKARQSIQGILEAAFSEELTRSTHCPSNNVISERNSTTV
Description: (A) Electrophysiological response of Xenopus oocytes injected with cRNA for C3a Receptor (10 ng), total U937 RNA (25 ng), or a mixture of C3a Receptor (10 ng) and U937 RNA (25 ng) to 10 nM rC5a, 10 nM C3a analogue peptide, 10 nM platelet activating factor (PAF), 10 nM fMetLeuPhe. Inset, represents typical response of oocytes co-injected with C3a Receptor cRNA+U937 RNA to 10 nM C3a. (B) Electrophysiological response of oocytes injected with C5a-R cRNA (10 ng), U937 RNA (25 ng) or a mixture of C5a-R and U937 RNA, to 10 nM rC5a or 10 nM C3a analogue peptide. […] Calcium mobilization by Fura 2 loaded cells expressing C5a receptor (FIGS. 4A & 4C) or C3a Receptor (FIGS. 4B & 4D) in response to rC5a (10 nM, FIG. 4A or 100 nM, FIG. 4B) or C3a analogue peptide (1 uM, FIGS. 4C & 4D).
Capped cRNA transcripts were generated from linearized C3a Receptor and C5a-R plasmid DNA as previously described (Kumar, C. S., et al (1989) J. Biol. Chem. 264, 17939-17946) and suspended in sterile water at a concentration of 0.2 μg/μl. Ovarian lobes were surgically removed from adult female Xenopus laevis frogs and defolliculated Stage V oocytes were harvested by manual dissection (Smith, L. D., et al (1991) Methods in Cell Biology, 36, 45-54. Edited by B. K. Kay and H. B. Peng, Academic Press Inc., New York.). Oocytes were microinjected with C3a Receptor or C5a-R cRNA transcripts (10 ng/oocyte) with or without U937 total RNA (25 ng/oocyte) in a 50 nl volume using a Drummond microinjection apparatus and maintained in modified Barth's saline (Power, C. A., et al (1995) J. Biol. Chem., 270,19495-19500 ) at 18° C. Electrophysiological recordings from an average of 10 oocytes were made 48 h later at room temperature using the two electrode voltage clamp (Warner Instruments) technique. Membrane potentials were routinely clamped at -60 mV. Results represent average response determined in three separate experiments.
The chemotactic receptors for C5a and the fMLP-R have previously been functionally expressed in Xenopus laevis oocytes (Kroll, B., et al (1991) FEBS Lett. 291, 208-210; Murphy, P. M. & McDermott, D. (1991) J Biol. Chem. 266, 12560-12567; Murphy, P. M., Gallin, E. K., and Tiffany, H. L. (1990) J Immunol. 145, 2227-2234; Schultz, P., et al (1992) Cellular Signalling 4, 153-161) and, unlike all other GPCRs tested in this system, injection of cRNA for the cloned chemotactic receptors alone is insufficient to stimulate signal transduction in response to ligand binding (Kroll, B., et al (1991) FEBS Lett. 291, 208-210; Murphy, P. M. & McDermott, D. (1991) J Biol. Chem. 266, 12560-12567). Functional expression of both of these chemotactic receptors, as monitored by induction of Ca^2+ mediated chloride currents, requires the co-injection of a complimentary human factor which can be supplied by total RNA from myeloid or liver cells (Kroll, B., et al (1991) FEBS Lett. 291, 208-210; Murphy, P. M. & McDermott, D. (1991) J Biol. Chem. 266, 12560-12567). The co-factor is required for receptor-mediated signal transduction but not for expression of the C5a-R or fMLF-R on the surface of the oocytes (Murphy, P. M., et al (1990) J Immunol. 145, 2227-2234). […] Xenopus oocytes were used to functionally characterize C3a Receptor. […] Like the C5a-R and the fMLF-R, the response was dependent on the co-injection of a cofactor present in total HL-60 or U937 RNA. […] (FIG. 3B). Both the C5a-R as well as C3a Receptor elicited in oocytes a promiscuous response to the two anaphylatoxins.

[2] = test system: C3a-R; conditions: cited from earlier work
[3] = test system: guinea pig ileal tissue; conditions: C3a and C4a; cited from earlier work

CCCCCCCCCCCCCCCCOCC(COP(=O)([O-])OCC[N+](C)(C)C)OC(C)=O (centres unmarked) [platelet activating factor]
electrophysiological response of oocytes expressing C3a Receptor [1]: not

pertussis toxin
sensitivity of functional activity of the C3a-R to pertussis toxin [2]: sensitive
effect on response to the C3a peptide of oocytes co-injected with C3a Receptor and U937 RNA ([1]; response to C3a peptide, data not shown): abolished

CSCC[C@H](NC=O)C(=O)N[C@@H](CC(C)C)C(=O)N[C@@H](Cc1ccccc1)C(=O)O [fMLF, fMetLeuPhe]
electrophysiological response of oocytes expressing C3a Receptor [1]: not

B1: C4a: 74-77 amino acid anaphylatoxins C3a, C4a and C5a (protein, UniProt P0C0L4 680-756, looked up)
C4a anaphylatoxin: NVNFQKAINEKLGQYASPTAKRCCQDGVTRLPMMRSCEQRAARVQQPDCREPFLSCCQFAESLRKKSRDKGQAGLQR
modifications: C4a anaphylatoxin
notes: 74-77 amino acid anaphylatoxins C3a, C4a and C5a
cross desensitization of guinea pig ileal tissue [3]: cross desensitize
